Molecules are shown by their SMILES.

The target in this test is HCV NS3-4A serine protease (full-length NS3-4A protein) (Hepatitis C virus genotype 1a (isolate 1) (HCV), UniProt P26664). The experiment in a line: HCV NS3-4A protease assay. As to conditions: strain HCV-1, fluorogenic peptide substrate, read-out: Protease assay Ex. 12 IC50. Format: biochemical, HCV genotype 1a. As to the method: The inhibitory activity of certain compounds of Table A against HCV NS3-4A serine protease is determined in a homogenous assay using the full-length NS3-4A protein (genotype 1a, strain HCV-1) and a commercially available internally-quenched fluorogenic peptide substrate as described by Taliani, M., et al. 1996 Anal. Biochem. 240:60-67, which is incorporated by reference in its entirety.
Sequence of HCV NS3-4A serine protease (full-length NS3-4A protein) (P26664 1027-1657): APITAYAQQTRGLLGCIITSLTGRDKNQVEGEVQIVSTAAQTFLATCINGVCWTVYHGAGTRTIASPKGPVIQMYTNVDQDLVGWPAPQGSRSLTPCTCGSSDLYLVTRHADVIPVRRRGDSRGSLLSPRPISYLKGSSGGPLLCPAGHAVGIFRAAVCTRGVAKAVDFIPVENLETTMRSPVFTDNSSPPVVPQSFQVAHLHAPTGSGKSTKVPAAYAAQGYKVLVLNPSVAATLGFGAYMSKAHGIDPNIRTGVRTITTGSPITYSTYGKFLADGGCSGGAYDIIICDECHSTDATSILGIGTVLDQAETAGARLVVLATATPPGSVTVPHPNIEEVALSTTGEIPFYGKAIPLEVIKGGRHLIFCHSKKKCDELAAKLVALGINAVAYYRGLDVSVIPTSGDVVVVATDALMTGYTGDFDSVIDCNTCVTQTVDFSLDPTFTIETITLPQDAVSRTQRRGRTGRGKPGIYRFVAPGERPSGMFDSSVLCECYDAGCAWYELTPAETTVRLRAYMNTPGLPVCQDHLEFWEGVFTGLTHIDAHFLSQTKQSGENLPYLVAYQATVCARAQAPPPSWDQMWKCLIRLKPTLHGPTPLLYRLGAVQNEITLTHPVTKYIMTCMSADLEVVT
Sequence of HCV NS3-4A serine protease (full-length NS3-4A protein) (P26664 1658-1711 partner): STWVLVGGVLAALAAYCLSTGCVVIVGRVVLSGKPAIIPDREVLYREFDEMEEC
What is called IC50 is the point on the concentration scale where inhibition reaches its midpoint. On to `C=C[C@@H]1C[C@]1(NC(=O)[C@@H]1C[C@@]2(CN1C(=O)[C@@H](NC(=O)[C@@H](NC(=O)[C@@H]1CCCCN1C1CCCC1)C1CCCCC1)C(C)(C)C)C(C)(C)C21CCC1)C(=O)NS(=O)(=O)N1CCCC1` [Compound 32, (5R,8S)-7-[(2S)-2-{[(2S)-2-cyclohexyl-2-({[(2S)-1-cyclopentylpiperidin-2-yl]carbonyl}amino)acetyl]amino}-3,3-dimethylbutanoyl]-10,10-dimethyl-N-{(1R,2S)-1-[(pyrrolidin-1-ylsulfonyl)carbamoyl]-2-vinylcyclopropyl}-7-azadispiro[3.0.4.1]decane-8-carboxamide], for which the IC50 came out at 1 nM.

Regarding `CC[C@@H]1C[C@]1(NC(=O)[C@@H]1C[C@@]2(CN1C(=O)[C@@H](NC(=O)[C@@H](NC(=O)[C@@H]1CCCCN1CC)C1CCCCC1)C(C)(C)C)C(C)(C)C21CCC1)C(=O)NS(=O)(=O)N1CCCC1` [Compound 87, (5R,8S)-7-[(2S)-2-{[(2S)-2-cyclohexyl-2-({[(2S)-1-ethylpiperidin-2-yl]carbonyl}amino)acetyl]amino}-3,3-dimethylbutanoyl]-N-{(1R,2R)-2-ethyl-1-[(pyrrolidin-1-ylsulfonyl)carbamoyl]cyclopropyl}-10,10-dimethyl-7-azadispiro[3.0.4.1]decane-8-carboxamide], the half-maximal inhibitory concentration (IC50) was determined as 7 nM.

On to `C=C[C@@H]1C[C@]1(NC(=O)[C@@H]1C[C@@]2(CN1C(=O)[C@@H](NC(=O)[C@@H](NC(=O)[C@@H]1CCCCN1C(C)C)C1CCCCC1)C(C)(C)C)C(C)(C)C21CCC1)C(=O)NS(=O)(=O)N(C)C1CC1` [Compound 53, (5R,8S)-7-[(2S)-2-{[(2S)-2-cyclohexyl-2-({[(2S)-1-isopropylpiperidin-2-yl]carbonyl}amino)acetyl]amino}-3,3-dimethylbutanoyl]-N-[(1R,2S)-1-({[cyclopropyl(methyl)amino]sulfonyl}carbamoyl)-2-vinylcyclopropyl]-10,10-dimethyl-7-azadispiro[3.0.4.1]decane-8-carboxamide], for which the IC50 was found to be 1.7 nM.

`C=C[C@@H]1C[C@]1(NC(=O)[C@@H]1C[C@@]2(CN1C(=O)[C@@H](NC(=O)[C@@H](NC(=O)[C@@H]1CCCN1CC)C1CCCCC1)C(C)(C)C)C(C)(C)C21CCC1)C(=O)NS(=O)(=O)N(CC)C(C)C` [Compound 111, (5R,8S)-7-[(2S)-2-{[(2S)-2-cyclohexyl-2-({[(2S)-1-ethylpyrrolidin-2-yl]carbonyl}amino)acetyl]amino}-3,3-dimethylbutanoyl]-N-[(1R,2S)-1-({[ethyl(isopropyl)amino]sulfonyl}carbamoyl)-2-vinylcyclopropyl]-10,10-dimethyl-7-azadispiro[3.0.4.1]decane-8-carboxamide]: the IC50 amounted to 8 nM.

For the molecule `C=C[C@@H]1C[C@]1(NC(=O)[C@@H]1C[C@@]2(CN1C(=O)[C@@H](NC(=O)[C@@H](NC(=O)[C@@H]1CCCCN1C(C)C)C(C)C)C(C)(C)C)C(C)(C)C21CCC1)C(=O)NS(=O)(=O)N(CC)CC` [Compound 122, (5R,8S)-N-[(1R,2S)-1-{[(diethylamino)sulfonyl]carbamoyl}-2-vinylcyclopropyl]-7-[(2S)-2-{[(2S)-2-({[(2S)-1-isopropylpiperidin-2-yl]carbonyl}amino)-3-methylbutanoyl]amino}-3,3-dimethylbutanoyl]-10,10-dimethyl-7-azadispiro[3.0.4.1]decane-8-carboxamide], the IC50 is 1.4 nM.

Turning to `C=C[C@@H]1C[C@]1(NC(=O)[C@@H]1C[C@@]2(CN1C(=O)[C@@H](NC(=O)[C@@H](NC(=O)[C@@H]1CCCCN1CCF)C1CCCCC1)C(C)(C)C)C(C)(C)C21CCC1)C(=O)NS(=O)(=O)N1CCCC1` [Compound 26, (5R,8S)-7-[(2S)-2-{[(2S)-2-cyclohexyl-2-({[(2S)-1-(2-fluoroethyl)piperidin-2-yl]carbonyl}amino)acetyl]amino}-3,3-dimethylbutanoyl]-10,10-dimethyl-N-{(1R,2S)-1-[(pyrrolidin-1-ylsulfonyl)carbamoyl]-2-vinylcyclopropyl}-7-azadispiro[3.0.4.1]decane-8-carboxamide], the IC50 is 15 nM.

For `C=C[C@@H]1C[C@]1(NC(=O)[C@@H]1C[C@@]2(CN1C(=O)[C@@H](NC(=O)[C@@H](NC(=O)c1cccc(N(C)C)n1)C1CCCCC1)C(C)(C)C)C(C)(C)C21CCC1)C(=O)NS(=O)(=O)N1CCCC1` [Compound 69, (5R,8S)-7-[(2S)-2-{[(2S)-2-cyclohexyl-2-({[6-(dimethylamino)pyridin-2-yl]carbonyl}amino)acetyl]amino}-3,3-dimethylbutanoyl]-10,10-dimethyl-N-{(1R,2S)-1-[(pyrrolidin-1-ylsulfonyl)carbamoyl]-2-vinylcyclopropyl}-7-azadispiro[3.0.4.1]decane-8-carboxamide], the half-inhibitory concentration (IC50) is 50 nM.

Consider `C=C[C@@H]1C[C@]1(NC(=O)[C@@H]1C[C@@]2(CN1C(=O)[C@@H](NC(=O)[C@@H](NC(=O)c1c[nH]c3ccccc13)C1CCCCC1)C(C)(C)C)C(C)(C)C21CCC1)C(=O)NS(=O)(=O)N1CCCC1` [Compound 189, (5R,8S)-7-[(2S)-2-({cyclohexyl[(1H-indol-3-ylcarbonyl)amino]acetyl}amino)-3,3-dimethylbutanoyl]-10,10-dimethyl-N-{(1R,2S)-1-[(pyrrolidin-1-ylsulfonyl)carbamoyl]-2-vinylcyclopropyl}-7-azadispiro[3.0.4.1]decane-8-carboxamide], for which the half-inhibitory concentration (IC50) came to 25 nM.

Turning to `C=C[C@@H]1C[C@]1(NC(=O)[C@@H]1C[C@@]2(CN1C(=O)[C@@H](NC(=O)CC1(CC(N)=O)CCCCC1)C(C)(C)C)C(C)(C)C21CCC1)C(=O)NS(=O)(=O)N1CCCC1` [Compound 60, (5R,8S)-7-[(2S)-2-({[1-(2-amino-2-oxoethyl)cyclohexyl]acetyl}amino)-3,3-dimethylbutanoyl]-10,10-dimethyl-N-{(1R,2S)-1-[(pyrrolidin-1-ylsulfonyl)carbamoyl]-2-vinylcyclopropyl}-7-azadispiro[3.0.4.1]decane-8-carboxamide], the IC50 was found to be 1250 nM.

Regarding `C=C[C@@H]1C[C@]1(NC(=O)[C@@H]1C[C@@]2(CN1C(=O)[C@@H](NC(=O)[C@@H](NC(=O)[C@H]1CCCN1C(C)C)C(C)(C)C)C(C)(C)C)C(C)(C)C21CCC1)C(=O)NS(=O)(=O)N1CCCC1` [Compound 21, (5R,8S)-7-[(2S)-2-{[(2S)-2-({[(2R)-1-isopropylpyrrolidin-2-yl]carbonyl}amino)-3,3-dimethylbutanoyl]amino}-3,3-dimethylbutanoyl]-10,10-dimethyl-N-{(1R,2S)-1-[(pyrrolidin-1-ylsulfonyl)carbamoyl]-2-vinylcyclopropyl}-7-azadispiro[3.0.4.1]decane-8-carboxamide], the IC50 worked out at 35 nM.

For `C=C[C@@H]1C[C@]1(NC(=O)[C@@H]1C[C@@]2(CN1C(=O)[C@@H](NC(=O)[C@@H](NC(=O)c1ccnc3ccccc13)C1CCCCC1)C(C)(C)C)C(C)(C)C21CCC1)C(=O)NS(=O)(=O)N1CCCC1` [Compound 197, (5R,8S)-7-[(2S)-2-({cyclohexyl[(quinolin-4-ylcarbonyl)amino]acetyl}amino)-3,3-dimethylbutanoyl]-10,10-dimethyl-N-{(1R,2S)-1-[(pyrrolidin-1-ylsulfonyl)carbamoyl]-2-vinylcyclopropyl}-7-azadispiro[3.0.4.1]decane-8-carboxamide], the IC50 stood at 40 nM.

Turning to `C=C[C@@H]1C[C@]1(NC(=O)[C@@H]1C[C@@]2(CN1C(=O)[C@@H](NC(=O)[C@@H](NC(=O)[C@@H]1CCCCN1C(C)C)C1CCCCC1)C(C)(C)C)C(C)(C)C21CCC1)C(=O)NS(=O)(=O)N(C)C` [Compound 162, (5R,8S)-7-[(2S)-2-{[(2S)-2-cyclohexyl-2-{[(1-isopropylpiperidin-2-yl)carbonyl]amino}acetyl]amino}-3,3-dimethylbutanoyl]-N-[(1R,2S)-1-{[(dimethylamino)sulfonyl]carbamoyl}-2-vinylcyclopropyl]-10,10-dimethyl-7-azadispiro[3.0.4.1]decane-8-carboxamide], the IC50 came out at 0.9 nM.

Regarding `C=C[C@@H]1C[C@]1(NC(=O)[C@@H]1C[C@@]2(CN1C(=O)[C@@H](NC(=O)[C@@H](NC(=O)[C@@H]1CCCCN1C(C)C)C1(C)CCCCC1)C(C)(C)C)C(C)(C)C21CCC1)C(=O)NS(=O)(=O)N(CC)CC` [Compound 133, (5R,8S)-N-[(1R,2S)-1-{[(diethylamino)sulfonyl]carbamoyl}-2-vinylcyclopropyl]-7-[(2S)-2-{[(2S)-2-({[(2S)-1-isopropylpiperidin-2-yl]carbonyl}amino)-2-(1-methylcyclohexyl)acetyl]amino}-3,3-dimethylbutanoyl]-10,10-dimethyl-7-azadispiro[3.0.4.1]decane-8-carboxamide], the half-inhibitory concentration (IC50) is 3 nM.

In the case of `C=C[C@@H]1C[C@]1(NC(=O)[C@@H]1C[C@@]2(CN1C(=O)[C@@H](NC(=O)[C@@H](NC(=O)[C@H]1CCCCN1C)C1CCCCC1)C(C)(C)C)C(C)(C)C21CCC1)C(=O)NS(=O)(=O)N1CCCC1` [Compound 48, (5R,8S)-7-[(2S)-2-{[(2S)-2-cyclohexyl-2-({[(2R)-1-methylpiperidin-2-yl]carbonyl}amino)acetyl]amino}-3,3-dimethylbutanoyl]-10,10-dimethyl-N-{(1R,2S)-1-[(pyrrolidin-1-ylsulfonyl)carbamoyl]-2-vinylcyclopropyl}-7-azadispiro[3.0.4.1]decane-8-carboxamide], the half-inhibitory concentration (IC50) was determined as 0.9 nM.

On to `C=C[C@@H]1C[C@]1(NC(=O)[C@@H]1C[C@@]2(CN1C(=O)[C@@H](NC(=O)[C@@H](NC(=O)c1ccc3c(ccn3C)c1)C1CCCCC1)C(C)(C)C)C(C)(C)C21CCC1)C(=O)NS(=O)(=O)N1CCCC1` [Compound 198, (5R,8S)-7-{(2S)-2-[(cyclohexyl{[(1-methyl-1H-indol-5-yl)carbonyl]amino}acetyl)amino]-3,3-dimethylbutanoyl}-10,10-dimethyl-N-{(1R,2S)-1-[(pyrrolidin-1-ylsulfonyl)carbamoyl]-2-vinylcyclopropyl}-7-azadispiro[3.0.4.1]decane-8-carboxamide], for which the IC50 came out at 40 nM.

The values are drawn from US8613914B2, “Peptidomimetic sulfamide compounds and antiviral uses thereof” (Novartis AG, priority 2009, dated 2013).
